# Assays:
# Experiment in all cases: Millipore Kinase Profiler, single concentration
# Format in all cases: biochemical
# Settings in all cases: duplicate assay points, read-out: % residual activity
# EphB4(h) = molecular target: T1, EphB4(h) (Homo sapiens, UniProt P54760)
# T1 construct: purchased Millipore KinaseProfiler
# From the text: (§1) Kinase profiling of compound 48 was outsourced to Millipore, specifically the Kinase Profiler Customer Service for single concentration studies using duplicate assay points.
# CHK1(h) = molecular target: T2, CHK1(h) (Homo sapiens, UniProt O14757)
# T2 construct: purchased Millipore KinaseProfiler
# From the text: as §1
# ROCK-II(h) = molecular target: T3, ROCK-II(h) (Homo sapiens, UniProt O75116)
# T3 construct: purchased Millipore KinaseProfiler
# From the text: as §1
# ZAP-70(h) = molecular target: T4, ZAP-70(h) (Homo sapiens, UniProt P43403)
# T4 construct: purchased Millipore KinaseProfiler
# From the text: as §1
# MEK1(h) = molecular target: T5, MEK1(h) (Homo sapiens, UniProt Q02750)
# T5 construct: purchased Millipore KinaseProfiler
# From the text: as §1
# CDK2/cyclinA(h) = molecular target: T6, CDK2/cyclinA(h) (Homo sapiens, UniProt P24941)
# T6 construct: purchased Millipore KinaseProfiler
# From the text: as §1
# PKD2(h) = molecular target: T7, PKD2(h) (Homo sapiens, UniProt Q9BZL6)
# T7 construct: purchased Millipore KinaseProfiler
# From the text: as §1
# cSRC(h) = molecular target: T8, cSRC(h) (Homo sapiens, UniProt P12931)
# T8 construct: purchased Millipore KinaseProfiler
# From the text: as §1
# MAPKAP-K2(h) = molecular target: T9, MAPKAP-K2(h) (Homo sapiens, UniProt P49137)
# T9 construct: purchased Millipore KinaseProfiler
# From the text: as §1
# NEK2(h) = molecular target: T10, NEK2(h) (Homo sapiens, UniProt P51955)
# T10 construct: purchased Millipore KinaseProfiler
# From the text: as §1
# AMPKα1(h) = molecular target: T11, AMPKα1(h) (Homo sapiens, UniProt Q13131)
# T11 construct: purchased Millipore KinaseProfiler
# From the text: as §1
# PKBα(h) = molecular target: T12, PKBα(h) (Homo sapiens, UniProt P31749)
# T12 construct: purchased Millipore KinaseProfiler
# From the text: as §1
# PKCη(h) = molecular target: T13, PKCη(h) (Homo sapiens, UniProt P24723)
# T13 construct: purchased Millipore KinaseProfiler
# From the text: as §1
# c-RAF(h) = molecular target: T14, c-RAF(h) (Homo sapiens, UniProt P04049)
# T14 construct: purchased Millipore KinaseProfiler
# From the text: as §1
# LIMK1(h) = molecular target: T15, LIMK1(h) (Homo sapiens, UniProt P53667)
# T15 construct: purchased Millipore KinaseProfiler
# From the text: as §1
# PDGFRβ(h) = molecular target: T16, PDGFRβ(h) (Homo sapiens, UniProt P09619)
# T16 construct: purchased Millipore KinaseProfiler
# From the text: as §1
# JAK2(h) = molecular target: T17, JAK2(h) (Homo sapiens, UniProt O60674)
# T17 construct: purchased Millipore KinaseProfiler
# From the text: as §1
# PKCμ(h) = molecular target: T18, PKCμ(h) (Homo sapiens, UniProt Q15139)
# T18 construct: purchased Millipore KinaseProfiler
# From the text: as §1
# CaMKIV(h) = molecular target: T19, CaMKIV(h) (Homo sapiens, UniProt Q16566)
# T19 construct: purchased Millipore KinaseProfiler
# From the text: as §1
# FGFR3(h) = molecular target: T20, FGFR3(h) (Homo sapiens, UniProt P22607)
# T20 construct: purchased Millipore KinaseProfiler
# From the text: as §1
# PAK2(h) = molecular target: T21, PAK2(h) (Homo sapiens, UniProt Q13177)
# T21 construct: purchased Millipore KinaseProfiler
# From the text: as §1
# PRK2(h) = molecular target: T22, PRK2(h) (Homo sapiens, UniProt Q16513)
# T22 construct: purchased Millipore KinaseProfiler
# From the text: as §1
# DAPK1(h) = molecular target: T23, DAPK1(h) (Homo sapiens, UniProt P53355)
# T23 construct: purchased Millipore KinaseProfiler
# From the text: as §1
# GSK3β(h) = molecular target: T24, GSK3β(h) (Homo sapiens, UniProt P49841)
# T24 construct: purchased Millipore KinaseProfiler
# From the text: as §1
# T23 sequence (P53355 whole entry): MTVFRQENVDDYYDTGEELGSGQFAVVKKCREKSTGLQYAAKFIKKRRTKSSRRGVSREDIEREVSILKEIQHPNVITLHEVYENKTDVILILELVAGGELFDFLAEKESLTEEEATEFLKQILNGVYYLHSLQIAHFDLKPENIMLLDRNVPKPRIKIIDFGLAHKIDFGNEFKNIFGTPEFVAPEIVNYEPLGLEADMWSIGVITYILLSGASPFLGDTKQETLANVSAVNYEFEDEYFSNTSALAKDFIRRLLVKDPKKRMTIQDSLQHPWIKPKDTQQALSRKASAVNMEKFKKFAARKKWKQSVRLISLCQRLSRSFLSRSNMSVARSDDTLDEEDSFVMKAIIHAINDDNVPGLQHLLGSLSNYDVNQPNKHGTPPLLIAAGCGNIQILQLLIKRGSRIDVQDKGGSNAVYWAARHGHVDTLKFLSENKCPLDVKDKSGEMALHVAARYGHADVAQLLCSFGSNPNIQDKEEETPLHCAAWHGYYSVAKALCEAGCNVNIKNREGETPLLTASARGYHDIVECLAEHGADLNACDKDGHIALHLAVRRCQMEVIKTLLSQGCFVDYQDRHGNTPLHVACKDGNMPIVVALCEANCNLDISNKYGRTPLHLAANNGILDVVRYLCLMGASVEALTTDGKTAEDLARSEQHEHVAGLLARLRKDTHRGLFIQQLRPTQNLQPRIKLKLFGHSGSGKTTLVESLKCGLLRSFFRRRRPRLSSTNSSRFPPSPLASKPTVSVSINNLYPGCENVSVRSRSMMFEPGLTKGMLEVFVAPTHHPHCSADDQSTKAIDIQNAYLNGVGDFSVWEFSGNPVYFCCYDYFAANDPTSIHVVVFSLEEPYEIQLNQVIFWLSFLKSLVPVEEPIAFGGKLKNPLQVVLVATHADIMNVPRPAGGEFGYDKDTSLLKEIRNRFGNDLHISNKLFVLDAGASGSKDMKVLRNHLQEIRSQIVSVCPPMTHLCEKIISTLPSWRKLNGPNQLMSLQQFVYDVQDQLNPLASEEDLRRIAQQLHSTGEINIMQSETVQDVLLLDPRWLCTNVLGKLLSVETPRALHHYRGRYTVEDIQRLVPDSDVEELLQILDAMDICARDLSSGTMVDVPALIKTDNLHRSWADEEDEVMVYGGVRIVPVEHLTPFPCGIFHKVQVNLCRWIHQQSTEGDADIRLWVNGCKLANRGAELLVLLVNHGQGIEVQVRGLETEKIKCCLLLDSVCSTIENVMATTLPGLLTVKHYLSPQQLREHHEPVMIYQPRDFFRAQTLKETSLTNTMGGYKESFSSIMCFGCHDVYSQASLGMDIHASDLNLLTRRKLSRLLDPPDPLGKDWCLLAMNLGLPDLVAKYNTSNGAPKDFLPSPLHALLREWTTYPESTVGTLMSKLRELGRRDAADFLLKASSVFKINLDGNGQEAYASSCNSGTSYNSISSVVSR
# T16 sequence (P09619 33-1106): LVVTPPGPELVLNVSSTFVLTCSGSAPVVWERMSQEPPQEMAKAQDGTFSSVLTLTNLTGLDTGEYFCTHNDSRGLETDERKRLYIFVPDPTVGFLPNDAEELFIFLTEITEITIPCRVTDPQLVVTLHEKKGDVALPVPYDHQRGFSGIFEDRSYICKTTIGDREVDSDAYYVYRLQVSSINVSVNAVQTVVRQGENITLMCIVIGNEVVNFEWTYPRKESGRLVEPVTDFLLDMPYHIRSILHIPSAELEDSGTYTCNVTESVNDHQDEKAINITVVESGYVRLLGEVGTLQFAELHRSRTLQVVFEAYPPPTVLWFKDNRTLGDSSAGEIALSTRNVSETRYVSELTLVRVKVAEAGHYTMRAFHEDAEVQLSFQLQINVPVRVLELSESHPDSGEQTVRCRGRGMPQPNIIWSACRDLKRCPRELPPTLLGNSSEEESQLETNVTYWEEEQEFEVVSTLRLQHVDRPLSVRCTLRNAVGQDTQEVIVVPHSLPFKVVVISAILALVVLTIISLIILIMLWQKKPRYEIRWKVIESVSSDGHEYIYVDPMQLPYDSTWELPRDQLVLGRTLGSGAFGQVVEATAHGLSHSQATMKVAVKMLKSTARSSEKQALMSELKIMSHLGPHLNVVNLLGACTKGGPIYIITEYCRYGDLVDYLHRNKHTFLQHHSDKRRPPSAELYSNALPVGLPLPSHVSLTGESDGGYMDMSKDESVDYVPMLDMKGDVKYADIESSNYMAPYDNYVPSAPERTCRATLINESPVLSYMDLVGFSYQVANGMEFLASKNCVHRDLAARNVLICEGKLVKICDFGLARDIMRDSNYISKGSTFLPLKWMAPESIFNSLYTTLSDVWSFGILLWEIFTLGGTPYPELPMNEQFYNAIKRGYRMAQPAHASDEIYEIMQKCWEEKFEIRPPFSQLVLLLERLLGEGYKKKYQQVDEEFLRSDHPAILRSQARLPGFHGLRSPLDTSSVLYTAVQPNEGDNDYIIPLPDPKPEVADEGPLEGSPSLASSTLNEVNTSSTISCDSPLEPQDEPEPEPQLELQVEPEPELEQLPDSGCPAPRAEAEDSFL
# T22 sequence (Q16513 whole entry): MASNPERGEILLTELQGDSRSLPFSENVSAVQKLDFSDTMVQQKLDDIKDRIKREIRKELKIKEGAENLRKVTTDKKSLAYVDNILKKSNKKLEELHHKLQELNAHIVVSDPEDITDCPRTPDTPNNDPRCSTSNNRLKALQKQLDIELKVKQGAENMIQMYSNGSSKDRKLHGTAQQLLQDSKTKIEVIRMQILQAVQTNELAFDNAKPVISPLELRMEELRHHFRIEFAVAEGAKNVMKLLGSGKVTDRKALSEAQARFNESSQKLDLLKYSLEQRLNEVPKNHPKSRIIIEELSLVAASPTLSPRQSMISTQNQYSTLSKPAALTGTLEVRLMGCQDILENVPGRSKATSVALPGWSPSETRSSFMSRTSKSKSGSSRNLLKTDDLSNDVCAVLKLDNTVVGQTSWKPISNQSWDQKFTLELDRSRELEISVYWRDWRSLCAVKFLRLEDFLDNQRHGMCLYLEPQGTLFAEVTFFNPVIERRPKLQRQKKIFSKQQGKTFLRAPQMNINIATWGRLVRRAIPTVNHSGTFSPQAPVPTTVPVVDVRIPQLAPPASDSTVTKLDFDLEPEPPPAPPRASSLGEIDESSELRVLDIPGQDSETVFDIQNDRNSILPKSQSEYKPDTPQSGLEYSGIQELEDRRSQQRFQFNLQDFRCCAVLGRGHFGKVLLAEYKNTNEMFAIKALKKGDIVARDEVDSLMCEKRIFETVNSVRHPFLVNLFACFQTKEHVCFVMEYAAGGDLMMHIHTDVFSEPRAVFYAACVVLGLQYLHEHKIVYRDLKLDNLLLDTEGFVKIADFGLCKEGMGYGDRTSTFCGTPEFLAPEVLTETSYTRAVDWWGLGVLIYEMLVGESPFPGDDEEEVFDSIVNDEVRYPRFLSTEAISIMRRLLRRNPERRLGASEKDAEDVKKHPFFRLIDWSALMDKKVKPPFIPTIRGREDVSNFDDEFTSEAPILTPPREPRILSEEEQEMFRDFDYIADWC
# T19 sequence (Q16566 whole entry): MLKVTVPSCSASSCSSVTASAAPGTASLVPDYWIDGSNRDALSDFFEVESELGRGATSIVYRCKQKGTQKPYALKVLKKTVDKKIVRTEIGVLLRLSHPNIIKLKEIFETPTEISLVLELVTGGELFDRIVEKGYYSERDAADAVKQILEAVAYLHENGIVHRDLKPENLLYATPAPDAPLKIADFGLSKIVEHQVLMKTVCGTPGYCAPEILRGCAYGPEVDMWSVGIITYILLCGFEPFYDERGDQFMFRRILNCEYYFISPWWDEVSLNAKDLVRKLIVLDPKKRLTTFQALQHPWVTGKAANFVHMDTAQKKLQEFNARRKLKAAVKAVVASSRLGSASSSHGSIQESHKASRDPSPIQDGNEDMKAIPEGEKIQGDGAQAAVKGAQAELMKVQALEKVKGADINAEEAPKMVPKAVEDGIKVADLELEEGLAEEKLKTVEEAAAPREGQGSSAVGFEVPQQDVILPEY
# T13 sequence (P24723 whole entry): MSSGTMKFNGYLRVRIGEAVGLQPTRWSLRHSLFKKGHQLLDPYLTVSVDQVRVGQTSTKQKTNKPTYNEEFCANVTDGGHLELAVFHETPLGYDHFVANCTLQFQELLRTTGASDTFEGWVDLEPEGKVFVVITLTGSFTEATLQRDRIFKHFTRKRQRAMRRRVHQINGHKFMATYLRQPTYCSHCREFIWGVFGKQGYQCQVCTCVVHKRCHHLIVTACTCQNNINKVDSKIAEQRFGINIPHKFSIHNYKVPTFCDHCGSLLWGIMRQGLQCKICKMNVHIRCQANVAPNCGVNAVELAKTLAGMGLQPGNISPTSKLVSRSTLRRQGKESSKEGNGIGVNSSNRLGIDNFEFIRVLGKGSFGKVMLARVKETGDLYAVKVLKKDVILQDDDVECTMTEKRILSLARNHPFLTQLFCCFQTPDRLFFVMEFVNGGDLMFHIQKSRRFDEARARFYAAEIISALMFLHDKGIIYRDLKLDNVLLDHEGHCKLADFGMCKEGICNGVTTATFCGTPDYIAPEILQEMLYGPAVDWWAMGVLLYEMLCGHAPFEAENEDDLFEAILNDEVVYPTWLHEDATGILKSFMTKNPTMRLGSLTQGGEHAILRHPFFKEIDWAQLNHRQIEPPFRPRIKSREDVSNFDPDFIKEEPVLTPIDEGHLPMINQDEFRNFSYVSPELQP
# T10 sequence (P51955 whole entry): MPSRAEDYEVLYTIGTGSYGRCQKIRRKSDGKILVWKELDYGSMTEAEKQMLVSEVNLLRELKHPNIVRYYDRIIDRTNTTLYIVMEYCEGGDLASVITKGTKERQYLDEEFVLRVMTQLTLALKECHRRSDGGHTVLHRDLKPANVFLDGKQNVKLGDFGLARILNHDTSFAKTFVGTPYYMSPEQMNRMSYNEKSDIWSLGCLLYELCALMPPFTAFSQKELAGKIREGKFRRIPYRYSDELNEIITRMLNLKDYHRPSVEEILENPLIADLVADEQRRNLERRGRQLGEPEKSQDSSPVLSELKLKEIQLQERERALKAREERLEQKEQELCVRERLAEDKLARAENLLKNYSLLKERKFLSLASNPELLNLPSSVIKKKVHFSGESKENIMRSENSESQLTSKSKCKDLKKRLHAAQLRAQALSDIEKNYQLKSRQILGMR
smiles,measurement,setting,value
"N#Cc1c[nH]c2nc(N)nc(-c3ccc(S(N)(=O)=O)cc3)c12 [Compound 48, 4-(2-Amino-5-cyano-7H-pyrrolo[2,3-d]pyrimidin-4-yl)benzenesulfonamide]",remaining activity at 10 µM,EphB4(h),56%
same,remaining activity at 10 µM,CHK1(h),58%
same,remaining activity at 10 µM,ROCK-II(h),20%
same,remaining activity at 10 µM,ZAP-70(h),138%
same,remaining activity at 10 µM,MEK1(h),14%
same,remaining activity at 10 µM,CDK2/cyclinA(h),20%
same,remaining activity at 10 µM,PKD2(h),26%
same,remaining activity at 10 µM,cSRC(h),76%
same,remaining activity at 10 µM,MAPKAP-K2(h),69%
same,remaining activity at 10 µM,NEK2(h),96%
same,remaining activity at 10 µM,AMPKα1(h),22%
same,remaining activity at 10 µM,PKBα(h),93%
same,remaining activity at 10 µM,PKCη(h),53%
same,remaining activity at 10 µM,c-RAF(h),37%
same,remaining activity at 10 µM,LIMK1(h),30%
same,remaining activity at 10 µM,PDGFRβ(h),104%
same,remaining activity at 10 µM,JAK2(h),29%
same,remaining activity at 10 µM,PKCμ(h),10%
same,remaining activity at 10 µM,CaMKIV(h),37%
same,remaining activity at 10 µM,FGFR3(h),32%
same,remaining activity at 10 µM,PAK2(h),73%
same,remaining activity at 10 µM,PRK2(h),31%
same,remaining activity at 10 µM,DAPK1(h),99%
same,remaining activity at 10 µM,GSK3β(h),16%

# Reference: publication PMC5578373, “Inhibitory Kappa B Kinase α (IKKα) Inhibitors That Recapitulate Their Selectivity in Cells against Isoform-Related Biomarkers” (Journal of Medicinal Chemistry, 2017)
